From patent US20210052701A1, “Methods of Treating Vascular Leakage Using CXCL12 Peptides” (The Medical College of Wisconsin, Inc., priority 2018, published 2021)
“Also recorded” adds a separate entry of the source.

Tested on: HULEC-5a
Assay: Effects of CXCL12 and ubiquitin on thrombin-induced impairment of HULEC-5a monolayer permeability
Type: cell-based, human
Settings: thrombin 50 nM, after 10 min 50 nM ligand
Description: FIGS. 4A-4D show effects of CXCL12 and ubiquitin on thrombin-induced impairment of HULEC-5a monolayer permeability. (A) HULEC-5a were grown to a confluent monolayer on collagen-coated permeable membranes and then exposed to different concentration of thrombin for 10 min, followed by the addition of FITC-dextran. Endothelial permeability was assessed by measuring the amount of FITC-dextran that permeated through the cell monolayer. No cells: 100% permeability. RFU: Relative fluorescence units. N=3 in quadruplicate. (B) Dose-response curves for thrombin-induced permeability, data from A. 100% permeability=permeability in the absence of HULEC-5a. Open squares: Permeability at t=55 min. Light grey squares: Permeability at t=135 min. Dark grey squares: Permeability at t=255 min. […] Endothelial permeability was assessed by measuring the amount of FITC-dextran that permeated through the cell monolayer. RFU: Relative fluorescence units. […]
In vitro vascular permeability assays—Permeability assays were obtained from Millipore (ECM642) and performed as per manufacturer's instructions. […] Fluorescein isothiocyanate (FITC)-dextran (20 μg/mL) was then added on top of the monolayer and the amount of FITC-dextran that permeated through the monolayer was quantified by measuring fluorescence in a Synergy 2 Multi-mode Microplate Reader (BioTek, Winooski, Vt.) at various time points over a 255 min time period.

CXCL12: Wild-type CXCL12 (SEQ ID NO:1), cognate agonist of CXCR4 and ACKR3
effect on thrombin-mediated impairment of HULEC-5a barrier function when added after thrombin: significantly reduced thrombin-mediated impairment of endothelial cell barrier function; also recorded: less efficacious in HULEC-5a cells than in hPPAEC
